Source: patent publication US20120058499A1, “Bioluminescent Detection of Protease Activity” (priority 2010, published 2012)

How the values were obtained:
Type in all cases: biochemical
USP2core = target: T1, USP2core (Homo sapiens, UniProt O75604); assay: Isopeptidase cleavage of substrates (DUB-Glo luminescence / fluorescence), S/B; conditions: USP2core 0.5 nM
T1 construct: USP2core (the common catalytic core domain of the two isoforms of USP2, USP2a and USP2b)
T1 sequence (O75604 267-599 limits assumed): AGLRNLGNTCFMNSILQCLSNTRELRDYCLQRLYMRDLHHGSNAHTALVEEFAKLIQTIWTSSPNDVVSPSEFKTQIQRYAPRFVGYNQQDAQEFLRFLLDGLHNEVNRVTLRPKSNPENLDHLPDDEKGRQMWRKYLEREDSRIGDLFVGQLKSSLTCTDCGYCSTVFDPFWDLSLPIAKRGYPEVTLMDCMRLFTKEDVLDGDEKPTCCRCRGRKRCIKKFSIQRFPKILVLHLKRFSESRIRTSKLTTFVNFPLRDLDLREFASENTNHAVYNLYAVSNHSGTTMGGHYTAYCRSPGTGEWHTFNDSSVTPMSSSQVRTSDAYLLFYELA
Method: (§1) The Ub-amino-luciferin substrate was compared to the Z-Arg-Leu-Arg-Gly-Gly (SEQ ID NO: 1)-amino-luciferin substrate (Promega DUB-Glo™ substrate) to determine the limit of detection of the activities of four different isopeptidases (UCHL3, USP2core, USP7, and USP8). For all enzymes, these two substrates were tested in parallel using the DUB-Glo™ assay system (Promega) according to the manufacturer's instructions. All enzymes were diluted into 50 mM HEPES, pH 7.5, 10 mM DTT, 0.1% Prionex (Sigma-Aldrich). For testing Z-Arg-Leu-Arg-Gly-Gly (SEQ ID NO: 1)-amino-luciferin, final isopeptidase concentrations were as follows: UCHL3 equal to approximately 0.35 to 50 nM; USP2core equal to approximately 10 to 500 nM, USP7 equal to approximately 0.1 to 50 nM, and USP8 equal to approximately 20 to 500 nM. For testing Ub-amino-luciferin, final isopeptidase concentrations were as follows: UCHL3 equal to approximately 0.05 to 50 pM; USP2core, USP7, and USP8 equal to approximately 0.5 to 500 pM. Reactions were assembled through addition of 50 μl of diluted enzyme and 50 μl of DUB-Glo™ reaction mixture supplemented with either Z-Arg-Leu-Arg-Gly-Gly (SEQ ID NO: 1)-amino-luciferin (final concentration of 20 μM) or Ub-amino-luciferin (final concentration of 100 nM). The signal in relative luminescence units (RLUs) was measured at 30 minutes from reaction assembly on an Envision multi-label plate reader (Perkin Elmer). The signal to background ratio (S/B) was calculated as (maximum signal−signal in absence of enzyme)/(signal in absence of enzyme).
(§2) The Ub-amino-luciferin (Ub-LUC) substrate was compared to the Ub-AMC substrate (FIG. 3) and the Ub-Rhodamine110 (Ub-Rho) substrate (FIG. 4), to determine the limit of detection for the activities of four different isopeptidases (UCHL3, USP2core, USP7, and USP8). All enzymes were diluted into 50 mM Tris, pH 8.0, 5 mM DTT, 0.05% (w/v) CHAPS. Final isopeptidase concentrations were as follows: UCHL3 equal to approximately 2 pM to 40 pM; USP2core, USP7, and USP8 were equal to approximately 10 to 1000 nM. Either Ub-AMC or Ub-Rhodamine110 (final concentration equal to 250 nM) were diluted into 50 mM Tris, pH 8.0, 5 mM DTT, 0.05% (w/v) CHAPS. Reactions were assembled through the addition of 50 μl diluted isopeptidase to 50 μl of either Ub-AMC or Ub-Rhodamine110, and the signal in relative fluorescence units (RFUs) was measured at 30 minutes on an Envision multi-label plate reader (Perkin Elmer). For Ub-AMC, fluorescence was monitored with filters corresponding to excitation at 340 nm and emission at 460 nm. For Ub-Rhodamine110, fluorescence was monitored with filters corresponding to excitation at 485 nm and emission at 531 nm. The signal to background (S/B) was calculated as (maximum signal−signal in absence of enzyme)/(signal in absence of enzyme).

USP7 = USP7 (Homo sapiens, UniProt Q93009); assay: as above; conditions: USP7 0.5 nM
Method: as §1, §2

USP8 = target: T2, USP8 (Homo sapiens, UniProt P40818); assay: as above; conditions: USP8 0.5 nM
T2 sequence (P40818 1-1118): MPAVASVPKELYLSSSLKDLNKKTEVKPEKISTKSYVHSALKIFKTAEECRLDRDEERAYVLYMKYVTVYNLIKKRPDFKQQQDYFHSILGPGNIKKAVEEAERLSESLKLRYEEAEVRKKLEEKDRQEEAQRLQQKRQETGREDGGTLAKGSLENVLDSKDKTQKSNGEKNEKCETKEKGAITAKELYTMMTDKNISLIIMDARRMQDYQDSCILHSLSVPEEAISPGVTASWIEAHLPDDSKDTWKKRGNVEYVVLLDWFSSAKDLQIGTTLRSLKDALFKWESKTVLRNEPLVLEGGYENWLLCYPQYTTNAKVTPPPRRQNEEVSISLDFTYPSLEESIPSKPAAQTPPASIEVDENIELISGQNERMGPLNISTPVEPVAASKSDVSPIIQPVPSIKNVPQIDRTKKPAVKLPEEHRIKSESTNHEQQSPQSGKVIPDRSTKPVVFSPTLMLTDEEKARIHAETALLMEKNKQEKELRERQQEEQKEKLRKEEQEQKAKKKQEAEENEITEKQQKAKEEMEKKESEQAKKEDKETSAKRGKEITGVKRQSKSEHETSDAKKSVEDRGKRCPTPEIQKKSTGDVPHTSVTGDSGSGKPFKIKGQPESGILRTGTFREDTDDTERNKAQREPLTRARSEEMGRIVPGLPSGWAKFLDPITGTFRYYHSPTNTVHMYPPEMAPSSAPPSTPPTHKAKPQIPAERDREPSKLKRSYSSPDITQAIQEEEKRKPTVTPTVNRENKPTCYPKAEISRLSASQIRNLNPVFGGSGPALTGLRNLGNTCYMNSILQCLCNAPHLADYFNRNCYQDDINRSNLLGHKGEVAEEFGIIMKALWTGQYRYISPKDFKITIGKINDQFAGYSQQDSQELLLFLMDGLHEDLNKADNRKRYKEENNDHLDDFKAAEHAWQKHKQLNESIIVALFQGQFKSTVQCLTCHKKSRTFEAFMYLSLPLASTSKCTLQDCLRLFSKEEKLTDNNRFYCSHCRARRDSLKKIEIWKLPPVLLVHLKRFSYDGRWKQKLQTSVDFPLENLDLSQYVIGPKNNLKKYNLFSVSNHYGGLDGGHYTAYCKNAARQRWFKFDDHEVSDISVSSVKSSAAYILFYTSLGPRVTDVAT
Method: as §1, §2

[1] = tested on: UCHL3, USP2core, USP7, and USP8; assay: Limit of detection for four isopeptidases, Ub-LUC vs Ub-AMC and Ub-Rhodamine110; conditions: the four enzymes
Method: The Ub-amino-luciferin substrate was compared to the Z-Arg-Leu-Arg-Gly-Gly (SEQ ID NO: 1)-amino-luciferin substrate (Promega DUB-Glo™ substrate) to determine the limit of detection of the activities of four different isopeptidases (UCHL3, USP2core, USP7, and USP8). For all enzymes, these two substrates were tested in parallel using the DUB-Glo™ assay system (Promega) according to the manufacturer's instructions. All enzymes were diluted into 50 mM HEPES, pH 7.5, 10 mM DTT, 0.1% Prionex (Sigma-Aldrich). […] The signal in relative luminescence units (RLUs) was measured at 30 minutes from reaction assembly on an Envision multi-label plate reader (Perkin Elmer). The signal to background ratio (S/B) was calculated as (maximum signal−signal in absence of enzyme)/(signal in absence of enzyme).
The Ub-amino-luciferin (Ub-LUC) substrate was compared to the Ub-AMC substrate (FIG. 3) and the Ub-Rhodamine110 (Ub-Rho) substrate (FIG. 4), to determine the limit of detection for the activities of four different isopeptidases (UCHL3, USP2core, USP7, and USP8). […] Reactions were assembled through the addition of 50 μl diluted isopeptidase to 50 μl of either Ub-AMC or Ub-Rhodamine110, and the signal in relative fluorescence units (RFUs) was measured at 30 minutes on an Envision multi-label plate reader (Perkin Elmer). […]

Sequence of USP7 (Q93009 whole entry, species assumed): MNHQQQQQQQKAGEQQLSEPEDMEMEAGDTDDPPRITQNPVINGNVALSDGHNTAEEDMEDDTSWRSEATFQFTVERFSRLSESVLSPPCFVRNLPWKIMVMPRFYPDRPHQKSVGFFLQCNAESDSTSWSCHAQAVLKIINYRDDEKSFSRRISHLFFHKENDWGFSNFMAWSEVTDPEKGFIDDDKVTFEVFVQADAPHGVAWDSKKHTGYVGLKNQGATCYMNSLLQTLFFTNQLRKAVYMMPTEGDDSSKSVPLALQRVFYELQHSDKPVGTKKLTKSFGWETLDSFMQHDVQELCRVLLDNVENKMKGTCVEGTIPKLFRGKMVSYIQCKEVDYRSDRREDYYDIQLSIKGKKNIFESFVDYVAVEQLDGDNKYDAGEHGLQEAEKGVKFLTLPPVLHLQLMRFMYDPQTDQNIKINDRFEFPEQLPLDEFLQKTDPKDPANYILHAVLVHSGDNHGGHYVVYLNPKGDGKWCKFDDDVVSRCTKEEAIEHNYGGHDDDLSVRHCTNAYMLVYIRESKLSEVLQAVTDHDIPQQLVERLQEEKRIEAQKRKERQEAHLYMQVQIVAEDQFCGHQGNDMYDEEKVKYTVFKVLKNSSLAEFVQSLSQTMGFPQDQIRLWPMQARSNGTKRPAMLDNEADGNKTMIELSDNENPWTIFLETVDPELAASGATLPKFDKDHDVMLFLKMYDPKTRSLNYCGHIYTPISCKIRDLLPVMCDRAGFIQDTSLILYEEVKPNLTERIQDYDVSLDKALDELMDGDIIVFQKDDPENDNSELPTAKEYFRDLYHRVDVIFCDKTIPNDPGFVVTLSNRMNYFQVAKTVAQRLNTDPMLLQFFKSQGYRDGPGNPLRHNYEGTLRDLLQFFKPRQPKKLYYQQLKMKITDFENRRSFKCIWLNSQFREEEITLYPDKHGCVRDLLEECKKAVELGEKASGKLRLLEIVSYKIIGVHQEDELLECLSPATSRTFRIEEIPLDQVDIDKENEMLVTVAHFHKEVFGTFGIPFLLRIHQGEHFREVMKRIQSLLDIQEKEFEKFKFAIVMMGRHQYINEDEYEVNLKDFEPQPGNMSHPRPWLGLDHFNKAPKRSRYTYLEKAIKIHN

Substance: Ub(1-76)-aminoluciferin [Ub-LUC]
- S/B increase relative to both Ub-AMC and Ub-Rhodamine110 (USP2core): ~100 fold
- S/B increase relative to both Ub-AMC and Ub-Rhodamine110 (USP7): ~100 fold
- S/B increase relative to both Ub-AMC and Ub-Rhodamine110 (USP8): ~100 fold
- fold greater S/B compared to Ub-rhodamine110 [1]: more than 30 fold
- limit of detection (S/B>3) increased over Ub-rhodamine110 [1]: more than 30 fold
